Structures can show the parent of a compound that is named as a salt.
Tests used:
[1] = test system: P450 drug metabolizing enzyme present in the liver microsome; test: In vitro drug metabolism test using liver microsome; assay type: in vitro ADME; conditions: human and rat liver microsome, test compound 20 ng/ml, 37° C., 10, 20 and 30 minutes, residual ratio
Description: 1) Human and rat liver microsome suspension (human microsome: Xenotech, rat microsome: Charles River) was diluted with 100 mM Na-K phosphate buffer (pH 7.4) to a protein concentration of 0.5 mg/ml. To a 100 μl portion of this suspension were added 2 μl of a test compound solution (a 10 μg/ml acetonitrile solution), 500 μl of 200 mM Na-K phosphate buffer (pH 7.4), 50 μl of 1 mM EDTA-NaOH (pH 7.4) and 200 μl of purified water, thereby preparing a substrate solution (concentration in the reaction solution: liver microsome (as the protein content) 0.05 mg/ml, test compound 20 ng/ml, 100 mM Na-K phosphate buffer, 0.1 mM EDTA-NaOH).
2) An NADPH production system was prepared by mixing 42 mg of NADP, 5 ml of 100 mM […] (G6P) and 5 ml of 100 mM MgCl2, and adding 57 μl of G6P dehydrogenase (about 1750 U/5 mg/ml) to the mixture. This was heated at 37° C. for 5 minutes and then ice-cooled until its use.
3) A 900 μl portion of the substrate solution was pre-incubated at 37° C. for 5 minutes, and then 100 μl of the NADPH production system was added thereto, following by reaction at 37° C. for 10, 20 and 30 minutes. After termination of the reaction by adding 2 ml of ethyl acetate, the whole was ice-cooled. In this connection, a control sample was prepared by adding 100 μl of the NADPH production system after adding 2 ml of ethyl acetate (0 minute reaction).
4) To the reaction solution was added 100 μl of an internal standard substance having a predetermined concentration (an acetonitrile solution), 1 ml of 0.5 M phosphoric acid and 2 ml of ethyl acetate, followed by shaking for 10 minutes. After 10 minutes of centrifugation at 2,500 rpm, the ethyl acetate layer was separated and evaporated to dryness, and the residue was dissolved in 100 μl of an HPLC mobile phase solvent. The test compound was eluted after about 12 minutes, and the internal standard substance after about 16 minutes, under the following conditions. (HPLC measuring conditions mobile phase: acetonitrile/20 mM ammonium acetate=2:3 (v/v), column: Discovery RP Amide C16, 4.6×35 mm (SUPELCO), flow rate: 0.8 ml/min., detection: UV 286 nm)
5) A ratio (residual ratio) of the peak height ratio after 10, 20 or 30 minutes of the reaction to the peak height ratio of each test compound in the control (peak height ratio to the internal standard substance) was calculated.

[2] = Oral absorbability and pharmacokinetic profile evaluation test using type IV PDE inhibitory activity as the index; assay type: in vivo; conditions: orally administered to male Fisher rat at 3 mg/kg; plasma type IV PDE inhibitory activity as index; in comparison with a comparative compound
Description: Test Example 3. Oral absorbability and pharmacokinetic profile evaluation test using type IV PDE inhibitory activity as the index
The following assay was carried out in order to evaluate oral absorbability and pharmacokinetic profiles of the type IV PDE-inhibiting compounds of the invention.
1) Each test compound suspended in purified water containing 0.5% methyl cellulose was orally administered to a seven-week-old male Fisher rat at a dose of 3 mg/kg. In the control group, a solvent (0.5% methyl cellulose in purified water, 3 ml/kg) was administered in the same manner. After the oral administration, blood samples were periodically collected in the presence of heparin from the caudal vein of each rat under ether anesthesia, and plasma was prepared in the usual way.
2) The plasma prepared from each rat administered with the test compound or solvent was added to the type IV PDE measuring system shown in the above Test Example 1 so as to be a final concentration of 0.1%, and the type IV PDE inhibitory activity was measured.

CCn1c(=O)c(C2CCNCC2)c(-c2cccc(Cl)c2)c2ccc(C)nc21 (as salt: fumarate) [Example 28, 4-(3-chlorophenyl)-1-ethyl-7-methyl-3-(piperidin-4-yl)-1,8-naphthyridin-2(1H)-one monofumarate]
melting point: 225 to 227 °C

CCn1c(=O)c(CCC(=N)N)c(-c2cccc(Cl)c2)c2ccc(C)nc21 (as salt: hydrochloride) [Example 40, 3-(2-amidinoethyl)-4-(3-chlorophenyl)-1-ethyl-7-methyl-1,8-naphthyridin-2(1H)-one monohydrochloride]
melting point: 228 to 230 °C

CCn1c(=O)c(CCCC(=O)O)c(-c2cccc(Cl)c2)c2ccc(C)nc21 (hydrate or solvate) [Example 61, 4-[4-(3-chlorophenyl)-1-ethyl-7-methyl-2-oxo-1,2-dihydro-1,8-naphthyridin-3-yl]butanoic acid]
melting point: 146 to 148 °C

CCOC(=O)c1c(-c2cccc(Cl)c2)c2ccc(C)nc2n(CC)c1=O [Example 1, ethyl 4-(3-chlorophenyl)-1-ethyl-7-methyl-2-oxo-1,2-dihydro-1,8-naphthyridin-3-carboxylate]
melting point: 119 to 121 °C

CCn1c(=O)c(CCC(=O)O)c(-c2cccc(Cl)c2)c2ccc(C)nc21 [Example 2, 3-[4-(3-chlorophenyl)-1-ethyl-7-methyl-2-oxo-1,2-dihydro-1,8-naphthyridin-3-yl]propanoic acid]
metabolism by the P450 drug metabolizing enzyme present in the liver microsome [1]: hardly metabolized | oral absorbability and metabolic stability [2]: good oral absorbability and metabolic stability

CCn1c(=O)c(C(N)=O)c(-c2cccc(Cl)c2)c2ccc(C)nc21 [Example 4, 4-(3-chlorophenyl)-1-ethyl-7-methyl-2-oxo-1,2-dihydro-1,8-naphthyridin-3-carboxamide]
melting point: 249 to 252 °C

CCn1c(=O)c(CCC(=O)N(C)C)c(-c2cccc(Cl)c2)c2ccc(C)nc21 [Example 6, 3-[4-(3-chlorophenyl)-1-ethyl-7-methyl-2-oxo-1,2-dihydro-1,8-naphthyridin-3-yl]-N,N-dimethylpropanamide]
melting point: 134 to 136 °C

CCOC(=O)Nc1c(-c2cccc(Cl)c2)c2ccc(C)nc2n(CC)c1=O [Example 9, ethyl N-[4-(3-chlorophenyl)-1-ethyl-7-methyl-2-oxo-1,2-dihydro-1,8-naphthyridin-3-yl]carbamate]
melting point: 183 to 184 °C

CCn1c(=O)c(N)c(-c2cccc(Cl)c2)c2ccc(C)nc21 [Example 10, 3-amino-4-(3-chlorophenyl)-1-ethyl-7-methyl-1,8-naphthyridin-2(1H)-one]
melting point: 167 to 171 °C

CCn1c(=O)c(CCCNS(C)(=O)=O)c(-c2cccc(Cl)c2)c2ccc(C)nc21 [Example 14, N-{3-[4-(3-chlorophenyl)-1-ethyl-7-methyl-2-oxo-1,2-dihydro-1,8-naphthyridin-3-yl]propyl}methanesulfonamide]
melting point: 140 to 141 °C

CCn1c(=O)c(CCCO)c(-c2cccc(Cl)c2)c2ccc(C)nc21 [Example 16, 4-(3-chlorophenyl)-1-ethyl-3-(3-hydroxypropyl)-7-methyl-1,8-naphthyridin-2(1H)-one]
melting point: 109 to 110 °C

CCn1c(=O)c(-c2cccc(C(=O)O)c2)c(-c2cccc(Cl)c2)c2ccc(C)nc21 [Example 21, 3-[4-(3-chlorophenyl)-1-ethyl-7-methyl-2-oxo-1,2-dihydro-1,8-naphthyridin-3-yl]benzoic acid]
metabolism by the P450 drug metabolizing enzyme present in the liver microsome [1]: hardly metabolized | oral absorbability and metabolic stability [2]: good oral absorbability and metabolic stability | melting point: 254 to 256 °C

CCn1c(=O)c(C2CCNCC2)c(-c2cccc(Cl)c2)c2ccc(C)nc21 [Example 28, 4-(3-chlorophenyl)-1-ethyl-7-methyl-3-(piperidin-4-yl)-1,8-naphthyridin-2(1H)-one monofumarate]
metabolism by the P450 drug metabolizing enzyme present in the liver microsome [1]: hardly metabolized | oral absorbability and metabolic stability [2]: good oral absorbability and metabolic stability

CCn1c(=O)c(CCCOC(=O)OC)c(-c2cccc(Cl)c2)c2ccc(C)nc21 [Example 34, 4-(3-chlorophenyl)-1-ethyl-3-[3-(methoxycarbonyloxy)propyl]-7-methyl-1,8-naphthyridin-2(1H)-one]
melting point: 92 to 93 °C

CCn1c(=O)c(CCCOC)c(-c2cccc(Cl)c2)c2ccc(C)nc21 [Example 35, 4-(3-chlorophenyl)-1-ethyl-3-(3-methoxypropyl)-7-methyl-1,8-naphthyridin-2(1H)-one]
melting point: 96 to 97 °C

CCn1c(=O)c(CCN2CCC(C(=O)O)CC2)c(-c2cccc(Cl)c2)c2ccc(C)nc21 [Example 38, 1-{2-[4-(3-chlorophenyl)-1-ethyl-7-methyl-2-oxo-1,2-dihydro-1,8-naphthyridin-3-yl]ethyl}piperidine-4-carboxylic acid]
melting point: 142 to 146 °C

CCn1c(=O)c(CCC(=O)O)c(-c2cccc(Cl)c2)c2ccc(Cl)nc21 [Example 41, 3-[7-chloro-4-(3-chlorophenyl)-1-ethyl-2-oxo-1,2-dihydro-1,8-naphthyridin-3-yl]propanoic acid]
metabolism by the P450 drug metabolizing enzyme present in the liver microsome [1]: hardly metabolized | oral absorbability and metabolic stability [2]: good oral absorbability and metabolic stability | melting point: 197 to 199 °C

CCn1c(=O)c(CCC(=O)O)c(-c2cccc(Cl)c2)c2ccc(CO)nc21 [Example 42, 3-[4-(3-chlorophenyl)-1-ethyl-7-hydroxymethyl-2-oxo-1,2-dihydro-1,8-naphthyridin-3-yl]propanoic acid]
melting point: 157 to 160 °C

CCn1c(=O)c(CCC(=O)O)c(-c2cccc(Cl)c2)c2ccc(C=NO)nc21 [Example 43, 3-[4-(3-chlorophenyl)-1-ethyl-7-hydroxyiminomethyl-2-oxo-1,2-dihydro-1,8-naphthyridin-3-yl]propanoic acid]
metabolism by the P450 drug metabolizing enzyme present in the liver microsome [1]: hardly metabolized | oral absorbability and metabolic stability [2]: good oral absorbability and metabolic stability | melting point: 234 to 238 °C

CCn1c(=O)c(CCC(=O)O)c(-c2cccc(Cl)c2)c2ccc(NC)nc21 [Example 44, 3-[4-(3-chlorophenyl)-1-ethyl-7-methylamino-2-oxo-1,2-dihydro-1,8-naphthyridin-3-yl]propanoic acid]
melting point: 202 to 204 °C

CCn1c(=O)c(CCC(=O)O)c(-c2cccc(Br)c2)c2ccc(C)nc21 [Example 46, 3-[4-(3-bromophenyl)-1-ethyl-7-methyl-2-oxo-1,2-dihydro-1,8-naphthyridin-3-yl]propanoic acid]
melting point: 161 to 162 °C

CCn1c(=O)c(CCC(=O)O)c(C2CCCCC2)c2ccc(C)nc21 [Example 47, 3-(4-cyclohexyl-1-ethyl-7-methyl-2-oxo-1,2-dihydro-1,8-naphthyridin-3-yl)propanoic acid]
metabolism by the P450 drug metabolizing enzyme present in the liver microsome [1]: hardly metabolized | oral absorbability and metabolic stability [2]: good oral absorbability and metabolic stability | melting point: 155 to 156 °C

CCn1c(=O)c(CCCc2nnn[nH]2)c(-c2cccc(Cl)c2)c2ccc(C)nc21 [Example 70, 4-(3-chlorophenyl)-1-ethyl-7-methyl-3-[3-(1H-tetrazol-5-yl)propyl]-1,8-naphthyridin-2(1H)-one]
melting point: 155 to 158 °C

CCn1c(=O)c(CCC(=O)O)c(-c2cccs2)c2ccc(C)nc21 [Example 78]
melting point: 188 to 189 °C

CCn1c(=O)c(CCc2nnn[nH]2)c(-c2cccc(Br)c2)c2ccc(C)nc21 [Example 80]
melting point: 194 to 196 °C

Source: patent US6740662B1, “Naphthyridine derivatives” (Yamanouchi Pharmaceutical Co., Ltd., priority 1999, dated 2004)
